For the assay, the target named is Procathepsin L (Homo sapiens) (UniProt P07711). In words: CTSL enzyme inhibitors – biochemical, probe 2, dose response (AID 1636). The note with it: purified human cathepsin L enzyme inhibition.
Sequence of Procathepsin L (Homo sapiens) (P07711 114-288 limits assumed): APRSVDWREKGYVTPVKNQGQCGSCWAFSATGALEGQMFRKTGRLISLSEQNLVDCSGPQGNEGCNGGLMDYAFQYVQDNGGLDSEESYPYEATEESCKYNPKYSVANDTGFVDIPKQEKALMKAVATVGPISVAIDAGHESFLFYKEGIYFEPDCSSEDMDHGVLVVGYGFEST
Sequence of Procathepsin L (Homo sapiens) (P07711 292-333 limits assumed): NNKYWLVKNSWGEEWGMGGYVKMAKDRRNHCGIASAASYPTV

Take `CC(C)(C)OC(=O)N[C@@H](Cc1c[nH]c2ccccc12)C(=O)NNC(=O)OCC(=O)N1CCCc2ccccc21`: the concentration for half-maximal inhibition (IC50) was 7 nM.

As a reminder, the IC50 is the point on the concentration scale where inhibition reaches its midpoint.

The values above are taken from PubChem BioAssay AID1636 (PCMD, 2009).
